Patent publication US6352737B1, “Use of nanoscale sterols and sterol esters” (Cognis Deutschland GmbH, priority 1999, dated 2002)

Tested on: radioactive cholesterol
Assay: Hypocholesterolemic effect: content of radioactive cholesterol in blood of rats after oral gelatine capsule
Type: in vivo
Details: male rats, relative to blank group, mean of 10 animals; for Radioactivity After 3 h: blood 3 h after gelatine capsule (5% by weight sterol/ester, 0.5% by weight radioactively marked cholesterol) via stomach probe; for Radioactivity After 6 h: blood 6 h after gelatine capsule via stomach probe; for Radioactivity After 12 h: blood 12 h after gelatine capsule via stomach probe; for Radioactivity After 24 h: blood 24 h after gelatine capsule via stomach probe; for Radioactivity After 48 h: blood 48 h after gelatine capsule via stomach probe
Description: Gelatine capsules (weight ca. 1.5 g) containing 5% by weight β-sitostanol or β-sitostanolester (nanoparticles encapsulated in a gelatine or chitosan matrix and non-nanoscale commercial products) and 0.5% by weight of radioactively marked cholesterol were prepared. To study the hypocholesterolemic effect, male rats (individual weight ca.200 g) were allowed no food overnight. The next day, a size-reduced gelatine capsule was inserted into each test animal via a stomach probe together with a little water containing sodium chloride. After 3, 6, 12, 24 and 48 h, blood was taken from the animals and the content of radioactive cholesterol was determined. The results, which represent the mean value of the measurements of 10 test animals, are set out in Table 2. The figures relating to the reduction in radioactivity are based on a blank group of test animals which were only given gelatine capsules containing 20% by weight of vitamin E and a corresponding quantity of radioactively marked cholesterol. Examples 1 and 2 correspond to the invention, Examples C1 and C2 are intended for comparison.

Row | SMILES | Radioactivity After 3 h | Radioactivity After 6 h | Radioactivity After 12 h | Radioactivity After 24 h | Radioactivity After 48 h
1 | CC[C@H](CC[C@@H](C)[C@H]1CC[C@H]2[C@@H]3CC[C@H]4C[C@@H](O)CC[C@]4(C)[C@H]3CC[C@]12C)C(C)C [Example C1, β-Sitostanol] | 93 %-rel. | 83 %-rel. | 75 %-rel. | 50 %-rel. | 32 %-rel.
2 | CCCCCCCCCCCCCCCCCC(=O)O[C@H]1CC[C@@]2(C)[C@@H](CC[C@@H]3[C@@H]2CC[C@]2(C)[C@@H]([C@H](C)CC[C@@H](CC)C(C)C)CC[C@@H]32)C1 [Example C2, β-Sitostanyl stearate] | 90 %-rel. | 80 %-rel. | 71 %-rel. | 44 %-rel. | 26 %-rel.
